Measurements as given in patent publication US8076449B2, “Therapeutic agents of colivelin for neurodegenerative diseases” (Tomohiro Chiba, priority 2004, dated 2011).
Ends that are not written are not given here.

Legend:
[1] = test system: F11 cells transformed with M146L-PS1; conditions: as already reported; cited from earlier work
[2] = test system: ChAT(+) neurons in the ventral gray column of ALS model mice; test: Immunohistochemical count of ChAT(+) neurons in spinal cord sections from 120-day-old ALS model mice; type: in vivo, mouse; conditions: spinal cord (L1-3) sections from 120-day-old mice
Experimental: Spinal cord (L1-3) sections from wild-type (n=3, FIG. 10A), control (saline-treated) (n=5, FIG. 10B), ADNF-treated (n=3, FIG. 10C), or colivelin-treated (n=12, FIG. 10D) mice were immunostained with an anti-ChAT antibody to count ChAT(+) neurons in the ventral gray column. The sections were prepared from 120-day-old mice (see FIG. 8d). The average number of ChAT(+) neurons per section was compared among the mice (FIG. 10E). Statistical analysis was conducted by one-way ANOVA, followed by Fischer's PLSD test (**p<0.01; *p<0.05).
The immunohistochemical analysis of neuroprotective effect was conducted using ALS model mice (n=12, FIG. 10D) administered with colivelin, in comparison to wild type (n=3, FIG. 10A), control (saline-treated) (n=5, FIG. 10B), and ADNF-treated (n=3, FIG. 10C) mice. Spinal cord (L1-3) sections from the mice in each group were immunostained with an anti-ChAT antibody to count ChAT(+) neurons in the ventral gray column (FIG. 9f). The sections were prepared from 120-day-old mice with motor function increased by colivelin and ADNF (see FIG. 8d)

[3] = test system: ChAT(+) neurons in the ventral gray column of ALS model mice; test: Immunohistochemical count of ChAT(+) neurons in spinal cord sections from dead ALS model mice; type: in vivo, mouse; conditions: spinal cord (L1-3) sections from dead mice
Experimental: Spinal cord (L1-3) sections from wild-type (n=3, FIG. 9a), control (saline-treated) (n=5, FIG. 9b), ADNF-treated (n=3, FIG. 9c), AGA-C8R-HNG17-treated (n=14, FIG. 9d), or colivelin-treated (n=12, FIG. 9e) mice were immunostained with an anti-ChAT antibody to count ChAT(+) neurons in the ventral gray columns of the spinal cords. The sections were prepared from dead mice. The average number of ChAT(+) neurons per section was compared among the mice (FIG. 9f). Statistical analysis was conducted by one-way ANOVA, followed by Fischer's PLSD test (**p<0.01); and
The immunohistochemical analysis of neuroprotective effect was conducted using ALS model mice (n=12, FIG. 9e) administered with colivelin, in comparison to wild type (n=3, FIG. 9a), control (saline-treated) (n=5, FIG. 9b), A DNF-treated (n=3, FIG. 9c), and AGA-C8R-HNG17-treated (n=14, FIG. 9d) mice. Spinal cord (L1-3) sections from dead mice in each group were immunostained with an anti-ChAT antibody to count ChAT(+) neurons in the ventral gray column (FIG. 9f).

[4] = test system: CD-1 mice icv-administered with Aβ (25-35); test: Y-maze spatial working memory impairment induced by Aβ (25-35), icv administration; type: in vivo, mouse; conditions: 1 nmol colivelin icv, 10 nmol Aβ (25-35) icv, 3 weeks after Aβ
Experimental: The icv administration of Aβ peptides has been reported to induce spatial working memory impairment. […] In this test, the in vivo neuroprotective effect of colivelin on Aβ toxicity was examined.
Male CD-1 mice at 3 months of age were icy-administered once every three weeks with 1 nmol colivelin together with 3 μl of saline or 3 μl of saline alone into the left lateral ventricles. After 1 hour from the first administration of colivelin, 5 μl of saline together with 10 nmol Aβ (25-35) or 5 μl of saline alone was administered to the right lateral ventricles. After 3 weeks from the Aβ peptide administration, each mouse was examined for spatial working memory in a Y-maze. The Y-maze was made of three gray plastic arms (40 cm long, 12 cm high, 3 cm wide at the bottom, and 10 cm wide at the top) connected to each other at angles of 120°. The mice were individually placed at the end of one arm of the Y-maze and allowed to freely explore the arms for 8 minutes. Items examined were (1) frequency of entry into each arm, (2) total arm entry times, (3) spontaneous alternation percentage, and (4) events. The spontaneous alternation percentage was defined as a ratio of the arm choices that differed from the previous two choices (“successful choices”) to total choices during the run (“total entry minus two”, because the first two choices could not be evaluated for success or failure during the run). […]

Sequence: SALLRSIPA [ADNF, reference compound]
- suppression of cell death caused by M146L-PS1 [1]: does not suppress

Sequence: SALLRSIPAPAGASRLLLLTGEIDLP [colivelin]
- number of ChAT(+) neurons per section in the spinal cord [2]: approximately 32
- number of ChAT(+) neurons per section in the spinal cord [3]: approximately 19
- spontaneous alternation percentage (SA %) in Y-maze [4]: 70%
